The subject of assay [1] is NSCLC with sensitizing EGFR mutations (dominant measurable lung lesion). The conditions noted are these: for tumor volume: same patient.
Method: Patients provided informed consent and their records were retrospectively reviewed with IRB approval.
Baseline and follow-up CT scans were performed to determine response to EGFR-TKI using the clinical chest CT protocol [31]. Follow-up CT scans were performed every 8 weeks for 33 patients enrolled in prospective trials of EGFR-TKI, and at the discretion of the treating providers for 25 patients treated off protocol [5,25,45-47]. […] The nadir (the smallest tumor volume recorded from baseline to TKI termination/last follow-up) was determined for each patient.
1, 2012, were analyzed. Demographics and disease characteristics were summarized with descriptive statistics. A linear mixed effects model, fitting time as a random effect [48], was fitted to the repeated measures of volume data to estimate the effect of time and other prognostic factors on tumor growth. The tumor volume (mm^3) was transformed to the natural logarithm scale, and the logarithm of tumor volume (logeV) was used. The first model was built adjusting only for time in months from baseline. Since the baseline volume (logeV0; the tumor volume measured on the baseline scan performed before the initiation of TKI therapy) may influence the tumor volume and its growth rate, the second model was adjusted for time and logeV0.
Assay [2] has as its system stage IV lung adenocarcinoma. In words: CT follow-up of a lung adenocarcinoma patient on crizotinib (FIG. 4). As to conditions: person, 8 weeks. It counts as in vivo, human.

These results are taken from patent publication US10172581B2, “Methods of assessing tumor growth” (Dana-Farber Cancer Institute, Inc., priority 2013, dated 2019).

Read-outs that look alike come from different tables or passages of the source.

Take `C#Cc1cccc(Nc2ncnc3cc(OCCOC)c(OCCOC)cc23)c1` [erlotinib]: the “tumor volume at nadir” value in assay [1] (person, stage IV lung adenocarcinoma, 4 month of therapy, baseline 25,016 mm^3) is 5,288 mm^3. The tumor volume in assay [1] (5 month, regrowth after nadir) is 7,490 mm^3; in assay [1] (7 month) it was 12,922 mm^3.
In the case of `C[C@@H](Oc1cc(-c2cnn(C3CCNCC3)c2)cnc1N)c1c(Cl)ccc(F)c1Cl` [crizotinib], the “change of lung lesion on CT” value in assay [2] is “marked decrease of the lesion and nodular pericardial thickening”.
